Our source for the NR50 value values is patent publication US7834065B2, “Medical-use two part reactive adhesive and medical-use resin having self-degradation property” (BMG Incorporated, priority 2006, dated 2010).

For this data set, the system named is mouse established cell line L929. Put plainly: Cytotoxicity test (neutral red uptake, NR50). The note with it: L929 cells, 2 days incubation with sample; concentration at which 50% of the cells are killed. It is filed as cell-based. On the procedure:
The cytotoxicity test was made according to methods described in J. Biomed. Mater. Res. 29, 829-835 (1995) and by use of a mouse established cell line L929. In detail, cell dispersion was prepared to be 10,000 cells/mL; and 0.1 mL of the cell dispersion was sowed in each well of the 96-well culture plate and incubated at 37° C. for 3 days. Subsequently, each of the aqueous solutions mentioned above was diluted to one of various concentrations, and was charged into respective well by 0.1 mL. Then, incubation was further continued for 2 days. Subsequently, 0.1 mL of neural red culture-medium solution as prepared as 150 microgram/mL was added into the each well; and the incubation was made at 37° C. for 3 hours. After the incubation, culture medium was removed; and the cells were fixed by 1 wt % glutaraldehyde aqueous solution and thereafter air-dried. Subsequently, 0.1 mL of water/ethanol solution (equal-volume mixture) having 1 wt % of acetic acid was added; and then neural red molecules that had been taken into the cells were extracted. Light absorbency at 541 nm was measured and NR50 values were obtained from result of this measurement. The NR50 value indicates a concentration at which 50% of the cells are killed. The smaller the NR50 value becomes, the larger becomes the toxicity.

Compound `C=O` [Formaldehyde] returned an NR50 value of 1.7 ± 02 µg/mL.
In turn, `O=CCCCC=O` [Glutaraldehyde] had an NR50 value of 3.9 ± 0.7 µg/mL.
